# Laboratory results reported in US5043335A, “Indolocarbazoles and the use thereof” (Godecke Aktiengesellschaft, priority 1989, dated 1991).
# Experiments:
# [1] = target: protein kinase C; experiment: Inhibition of protein kinase C activated with phosphatidylserine and diacylglycerol (in vitro enzyme assay); format: biochemical; conditions: for IC50: activated with phosphatidylserine and diacylglycerol, read-out: Inhibiton (IC50) C-Kinase
# [2] = target: T1, cAMP-dependent protein kinase (catalytic subunit) (Homo sapiens, UniProt P17612); experiment: cAMP-dependent protein kinase (A kinase) test, 32P-phosphate incorporation into histone; format: biochemical
# T1 construct: purchased
# Description: (§1) The determination the inhibition of the cAMP- and of the cGMP-dependent protein kinase took place according to the test description below.
# cAMP-dependent protein kinase: The measurement of the activity takes place with the commercially available catalytic subunits of the enzyme. The incorporation of phosphorus 32-labeled phosphate into histone is thereby measured. A reaction batch of 200 μL contains the following components: 50 mM PIPES-NaOH (pH 7.5), 10 mM magnesium chloride, 1 mM DTT, 40 μM ATP, as well as 50 μg histone H-2B. The test is carried out as in the case of G kinase. The reaction is thereby started by the addition of 6 units of the catalytic subunit of the cAMP-dependent protein kinase.
# [3] = target: T2, cGMP-dependent protein kinase (Bos taurus, UniProt P00516); experiment: cGMP-dependent protein kinase (G kinase) test, 32P-phosphate incorporation into histone; format: biochemical, bovine
# T2 construct: The enzyme was obtained from bovine lung tissue and purified; from tissue; host or cells: bovine lung
# T2 sequence (P00516 1-671): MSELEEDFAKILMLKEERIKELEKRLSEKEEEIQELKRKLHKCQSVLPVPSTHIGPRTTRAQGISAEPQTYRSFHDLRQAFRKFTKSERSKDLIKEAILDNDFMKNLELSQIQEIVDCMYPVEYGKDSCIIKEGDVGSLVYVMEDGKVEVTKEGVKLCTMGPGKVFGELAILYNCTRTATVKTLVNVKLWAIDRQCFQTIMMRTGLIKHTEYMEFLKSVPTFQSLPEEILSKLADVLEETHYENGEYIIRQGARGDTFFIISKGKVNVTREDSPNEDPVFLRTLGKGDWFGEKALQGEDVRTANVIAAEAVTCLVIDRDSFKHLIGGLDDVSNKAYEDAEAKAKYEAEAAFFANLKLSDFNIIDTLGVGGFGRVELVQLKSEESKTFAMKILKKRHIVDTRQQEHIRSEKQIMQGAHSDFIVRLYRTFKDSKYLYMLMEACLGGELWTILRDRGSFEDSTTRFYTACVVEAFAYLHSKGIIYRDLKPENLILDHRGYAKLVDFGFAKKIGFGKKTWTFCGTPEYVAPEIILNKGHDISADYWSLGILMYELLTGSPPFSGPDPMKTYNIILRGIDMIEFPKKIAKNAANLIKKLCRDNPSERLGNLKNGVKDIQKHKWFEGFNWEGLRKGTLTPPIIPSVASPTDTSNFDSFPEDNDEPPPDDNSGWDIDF
# Description: as §1
# cGMP-dependent protein kinase: The enzyme was obtained from bovine lung tissue and purified and its activity determined via the incorporation of phosphorus 32-labeled phosphate into histone. The following components are contained in a test batch of 200 μL: 20 mM Tris-HCl (pH 7.4), 5 mM magnesium chloride, 1 mM DTT, 10 μM ATP, […], 40 μg BSA, 2% glycerol, as well as 10 μg histone II-A and possibly the substance to be investigated. […] After incubating for 5 minutes at 30° C., the reaction is stopped by the addition of 10% trichloroacetic acid and the samples then filtered off over a nitrocellulose filter. The phosphate incorporation is determined by Cerenkov counting in a scintillation counter and the percentage inhibition calculated therefrom.
Structure (SMILES),IC50 [1] [nM],IC50 [2] [nM],"Ratio IC50 kinase / IC50 C-Kinase, A/C ([2]; A-kinase versus C-kinase)",IC50 [3] [nM],"Ratio IC50 kinase / IC50 C-Kinase, G/C ([3]; G-kinase versus C-kinase)","inhibition of protein kinase C at a single concentration ([1]; concentration of 10^-5 M, same conditions of the in vitro enzyme assay)"
"O=C1NC(=O)c2c1c1c3ccccc3n3c1c1c2c2ccccc2n1C1CCC3O1 [I, 9,10,11,12-tetrahydro-9,l2-epoxy-1H-diindolo[1,2,3-fg: 3',2',1',kl]pyrrolo[3,4-i][1,6]benzodiazocine-1,3(2H)-dione]",28,5500,196,520,19,–
O=C1c2c(c3c4ccccc4n4c3c3c2c2ccccc2n3C2CCC4O2)C(=O)N1Cc1ccccc1 [III],> 10000,–,–,–,–,does not display a significant inhibition
